Measurements taken from publication PMC9278437 (Journal of Enzyme Inhibition and Medicinal Chemistry, 2022).

What was measured:
[1] = test system: breast cancer (MCF-7) cell line; assay: In vitro anti-proliferative activity, MTT assay, MCF-7; type: cell-based, human; details: for IC50: Homo sapiens, MCF7, 48 h, read-out: In vitro IC50 (nM) Mean ± SD MCF-7, MTT, 48 h, mean ± SD, n = 3; for In vitro IC50 (nM) Mean ± SD MCF-7: MTT, 48 h, n = 3
CDK2/cyclin A2 = CDK2/cyclin A2 (Homo sapiens, UniProt P24941); assay: biochemical
[2] = test system: colorectal carcinoma (HCT-116) cell line; assay: In vitro anti-proliferative activity, MTT assay, HCT-116; type: cell-based, human; details: 48 h, n = 3
[3] = test system: hepatocellular carcinoma (HepG-2) cell line; assay: In vitro anti-proliferative activity, MTT assay, HepG-2; type: cell-based, human; details: for IC50: Homo sapiens, HepG2, 48 h, read-out: In vitro IC50 (nM) Mean ± SD HepG-2; for In vitro IC50 (nM) Mean ± SD HepG-2: MTT, 48 h, n = 3

Row | IC50 [1] [nM] | In vitro IC50 (nM) Mean ± SD MCF-7 [1] | IC50 (CDK2/cyclin A2) [µM] | IC50 [3] [nM] | In vitro IC50 (nM) Mean ± SD HepG-2 [3] | SMILES | In vitro IC50 (nM) Mean ± SD HCT-116 [2]
1 | 63 ± 1.1 | good activity | 0.089 ± 0.005 | 49 ± 0.17 | moderate activity | CC(=O)OCC(CSc1nc2c3cnn(C(=O)CNc4ccc(F)cc4)c3ncn2n1)OC(C)=O (stereo not drawn) [Compound 11, 3-((7-((4-Fluorophenyl)glycyl)-7H-pyrazolo[4,3-e][1,2,4]triazolo[1,5-c]pyrimidin-2-yl)thio)propane-1,2-diyl diacetate] | most potent cytotoxic results
2 | 95 ± 1.9 | potent activity | 0.506 ± 0.011 | 987 ± 2 |  | O=C(CNc1ccc(F)cc1)n1ncc2c1ncn1nc(SCC(O)CO)nc21 (stereo not drawn) [Compound 10, 1-{2-[(2,3-Dihydroxypropyl)thio]-7H-pyrazolo[4,3-e][1,2,4]triazolo[1,5-c]pyrimidin-7-yl}-2-((4-fluorophenyl)amino)ethan-1-one] | 
3 | 663 ± 1.4 |  | 2.05 ± 0.05 | 690 ± 0.48 |  | N=c1c2cnn(C(=O)CNc3ccc(F)cc3)c2ncn1N[C@@H]1O[C@H](CO)[C@@H](O)[C@H](O)[C@H]1O [Compound 5, 1-(4-Imino-5-((ß-D-glucopyranosyl)amino)-4,5-dihydro-1H-pyrazolo[3,4-d]pyrimidin-1-yl)-2-((4-fluorophenyl)amino)ethan-1-one] | 
4 | 937 ± 0.93 |  | 0.274 ± 0.005 | 63 ± 0.11 | moderate activity | O=C(CNc1ccc(F)cc1)n1ncc2c1ncn1[nH]c(=S)nc21 [Compound 7, 1-(2-Thioxo-2,3-dihydro-7H-pyrazolo[4,3-e][1,2,4]triazolo[1,5-c]pyrimidin-7-yl)-2-((4-fluorophenyl)amino)ethan-1-one] | 
5 | 621 ± 2.7 |  | 0.559 ± 0.013 | 98 ± 0.78 |  | N=c1c2cnn(C(=O)CNc3ccc(F)cc3)c2ncn1N[C@@H]1OC[C@@H](O)[C@H](O)[C@H]1O [Compound 6, 1-(4-Imino-5-((ß-D-xylopyranosyl)amino)-4,5-dihydro-1H-pyrazolo[3,4-d]pyrimidin-1-yl)-2-((4-fluorophenyl)amino)ethan-1-one] | 
6 | 72 ± 0.53 |  | 1.06 ± 0.059 | 8 ± 0.34 | potent activity | N#CCSc1nc2c3cnn(C(=O)CNc4ccc(F)cc4)c3ncn2n1 [Compound 8, 2-((7-((4-Fluorophenyl)glycyl)-7H-pyrazolo[4,3-e][1,2,4]triazolo[1,5-c]pyrimidin-2-yl)thio)acetonitrile] | 
7 | 144 ± 0.47 |  |  | 19 ± 0.29 |  | CNC(=O)c1cc(Oc2ccc(NC(=O)Nc3ccc(Cl)c(C(F)(F)F)c3)cc2)ccn1 [Sorafenib, reference compound] | 
8 | 60 ± 0.49 |  | 0.881 ± 0.049 | 690 ± 1.6 | no activity | COC(CSc1nc2c3cnn(C(=O)CNc4ccc(F)cc4)c3ncn2n1)OC [Compound 9, 1-(2-((2,2-Dimethoxyethyl)thio)-7H-pyrazolo[4,3-e][1,2,4]triazolo[1,5-c]pyrimidin-7-yl)-2-((4-fluorophenyl)amino)ethan-1-one] | 
9 | 55 ± 0.43 | good activity | 0.13 ± 0.007 | 74 ± 1.1 | moderate activity | CC(=O)OCCSc1nc2c3cnn(C(=O)CNc4ccc(F)cc4)c3ncn2n1 [Compound 13, 2-((7-((4-Fluorophenyl)glycyl)-7H-pyrazolo[4,3-e][1,2,4]triazolo[1,5-c]pyrimidin-2-yl)thio)ethyl acetate] | most potent cytotoxic results
10 | 613 ± 0.33 | inactive | 0.961 ± 0.019 | 928 ± 0.97 | inactive | O=C(CNc1ccc(F)cc1)n1ncc2c1ncn1nc(SCCO)nc21 [Compound 12, 1-(2-((2-Hydroxyethyl)thio)-7H-pyrazolo[4,3-e][1,2,4]triazolo[1,5-c]pyrimidin-7-yl)-2-((4-fluorophenyl)amino)ethan-1-one] | inactive
11 | 150 ± 1.5 |  | 1.34 ± 0.021 | 603 ± 1.9 |  | N=c1c2cnn(C(=O)CNc3ccc(F)cc3)c2ncn1N [Compound 4, 1-(5-Amino-4-imino-4,5-dihydro-1H-pyrazolo[3,4-d]pyrimidin-1-yl)-2-((4-fluorophenyl)amino)ethan-1-one] | 
